According to patent publication US5624931A, “Pyrazole derivatives” (Fujisawa Pharmaceutical Co., Ltd., priority 1991, dated 1997):

What was measured:
[1] = test system: tumor necrosis factor (TNF) production, human peripheral blood monocyte; test: Inhibitory activity on the production of tumor necrosis factor (TNF) in LPS-stimulated purified human peripheral blood monocytes (TNF ELISA); assay type: cell-based; details: 48 h, bacterial lipopolysaccharide 1 μg/10^4 cells, 2 days at 37° C., read-out: IC50 (inhibition of TNF production)
Method: (b) Inhibitory activity on the production of tumor necrosis factor (TNF)
Purified human peripheral blood monocyte were stimulated with bacterial lipopolysaccharide (1 μg/10^4 cells) in the absence or presence of appropriately diluted test compound for 2 days at 37° C. in a humidified 5% CO2 atmosphere. Culture supernatants were tested for TNF ELISA assay.
TNF levels were quantified by a commercial ELISA kit (Endogen, Inc. USA) using a sandwich technique. The sensitivity levels for the detection of TNF were 12 pg/ml.
(§1) The inhibitory concentration that caused a 50% inhibition (IC50) was calculated by regression analysis of the dose-response data.

[2] = test system: Interleukin-1 (IL-1) production, human peripheral blood monocyte; test: Inhibitory activity on the production of Interleukin-1 (IL-1) in LPS-stimulated purified human peripheral blood monocytes (IL-1 ELISA); assay type: cell-based; details: 48 h, bacterial lipopolysaccharide 1 μg/10^4 cells, 2 days at 37° C., IL-1β ELISA, read-out: IC50 (inhibition of IL-1 production)
Method: (a) Inhibitory activity on the production of Interleukin-1 (IL-1)
Purified human peripheral blood monocyte were stimulated with bacterial lipopolysaccharide (1 μg/10^4 cells) in the absence or presence of appropriately diluted test compound for 2 days at 37° C. in a humidified 5% CO2 atmosphere. Culture supernatants were tested for IL-1 ELISA assay.
Test compound was dissolved in absolute DMSO (dimethyl sulfoxide) to achieve 10 mM stock solutions and was subsequently diluted in serum free RPMI1640.
IL-1 levels were quantified by a commercial ELISA kit (Ohtsuka assay, Japan) using a sandwich technique. The sensitivity levels for the detection of IL-1β were 20 pg/ml.
as §1

IC50 [2]: 38 nM
SMILES: Fc1ccc(-c2nn3c(c2-c2ccncc2)NCCC3)cc1 [Example 2-(1), 2-(4-fluorophenyl)-3-(pyridin-4-yl)-4,5,6,7-tetrahydropyrazolo[1,5-a]pyrimidine]
IC50 [1]: 116 nM
